pIC50: −log10 of the molar value.
Key:
[1] = system: mouse model of rheumatoid arthritis; settings: in vivo; cited from earlier work
[2] = system: model of systemic lupus erythematosis; settings: in vivo; cited from earlier work
PI3Kδ = biological target: T1, PI3Kδ (Homo sapiens, UniProt O00329); test: In vitro enzyme assay of recombinant PI3K (residual ATP bioluminescence); format: biochemical
T1 construct: Full length p110 subunits of PI3k α, β and δ, N-terminally labeled with polyHis tag; polyHis (N); made in house; host or cells: Sf9 insect cells (baculovirus)
T1 sequence (O00329 whole entry): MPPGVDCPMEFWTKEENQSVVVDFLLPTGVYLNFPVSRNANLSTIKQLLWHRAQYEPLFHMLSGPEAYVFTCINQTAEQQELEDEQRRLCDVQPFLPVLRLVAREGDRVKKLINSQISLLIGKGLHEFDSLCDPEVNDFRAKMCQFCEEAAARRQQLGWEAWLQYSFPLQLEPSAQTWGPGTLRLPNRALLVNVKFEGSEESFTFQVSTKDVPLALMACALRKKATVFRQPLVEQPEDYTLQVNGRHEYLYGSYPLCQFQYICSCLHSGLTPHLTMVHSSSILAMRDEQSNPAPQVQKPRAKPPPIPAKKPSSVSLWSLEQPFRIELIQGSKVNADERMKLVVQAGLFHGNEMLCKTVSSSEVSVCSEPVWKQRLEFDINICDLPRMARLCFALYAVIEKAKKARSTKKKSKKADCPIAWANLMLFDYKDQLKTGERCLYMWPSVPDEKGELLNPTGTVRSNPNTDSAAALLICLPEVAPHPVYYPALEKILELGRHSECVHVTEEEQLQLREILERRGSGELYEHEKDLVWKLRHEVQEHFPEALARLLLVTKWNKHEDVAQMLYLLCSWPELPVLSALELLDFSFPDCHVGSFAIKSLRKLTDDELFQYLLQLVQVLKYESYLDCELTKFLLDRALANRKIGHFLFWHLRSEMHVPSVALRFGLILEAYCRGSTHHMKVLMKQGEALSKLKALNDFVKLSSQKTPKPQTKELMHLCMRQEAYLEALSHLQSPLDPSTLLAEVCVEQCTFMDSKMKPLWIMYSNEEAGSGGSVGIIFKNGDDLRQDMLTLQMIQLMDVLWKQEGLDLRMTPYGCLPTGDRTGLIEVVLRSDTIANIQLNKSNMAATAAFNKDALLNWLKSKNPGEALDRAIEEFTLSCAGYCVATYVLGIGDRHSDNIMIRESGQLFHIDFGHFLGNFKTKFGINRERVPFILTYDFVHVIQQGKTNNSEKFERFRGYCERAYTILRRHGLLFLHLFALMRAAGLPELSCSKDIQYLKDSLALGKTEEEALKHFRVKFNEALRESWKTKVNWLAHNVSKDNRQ
T1 sequence (P27986 whole entry partner): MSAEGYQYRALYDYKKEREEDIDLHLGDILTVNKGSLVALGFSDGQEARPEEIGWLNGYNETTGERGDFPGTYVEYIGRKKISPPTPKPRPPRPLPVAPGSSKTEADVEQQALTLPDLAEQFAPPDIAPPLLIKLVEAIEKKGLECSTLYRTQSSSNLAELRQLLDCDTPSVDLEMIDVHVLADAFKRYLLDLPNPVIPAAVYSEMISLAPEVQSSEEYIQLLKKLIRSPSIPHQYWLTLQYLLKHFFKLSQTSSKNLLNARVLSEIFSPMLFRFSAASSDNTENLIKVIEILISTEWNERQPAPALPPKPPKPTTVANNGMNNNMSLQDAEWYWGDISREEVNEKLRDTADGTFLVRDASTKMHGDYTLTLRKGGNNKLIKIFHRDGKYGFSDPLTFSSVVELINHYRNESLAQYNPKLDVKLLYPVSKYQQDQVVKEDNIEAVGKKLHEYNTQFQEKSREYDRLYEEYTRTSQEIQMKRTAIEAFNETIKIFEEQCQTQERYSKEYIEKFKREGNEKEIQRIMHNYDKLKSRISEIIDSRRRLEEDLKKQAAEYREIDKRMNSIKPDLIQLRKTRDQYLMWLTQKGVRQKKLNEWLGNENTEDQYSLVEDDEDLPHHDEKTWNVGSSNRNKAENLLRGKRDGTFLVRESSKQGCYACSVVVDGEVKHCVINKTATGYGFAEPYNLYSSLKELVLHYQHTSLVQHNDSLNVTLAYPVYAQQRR
Method: Recombinant Expression of PI3Ks
Full length p110 subunits of PI3k α, β and δ, N-terminally labeled with polyHis tag, were coexpressed with p85 with Baculo virus expression vectors in sf9 insect cells. P110/p85 heterodimers were purified by sequential Ni-NTA, Q-HP, Superdex-100 chromatography. Purified α, β and δ isozymes were stored at −20° C. in 20 mM Tris, pH 8, 0.2M NaCl, 50% glycerol, 5 mM DTT, 2 mM Na cholate. Truncated PI3Kγ, residues 114-1102, N-terminally labeled with polyHis tag, was expessed with Baculo virus in Hi5 insect cells. The γ isozyme was purified by sequential Ni-NTA, Superdex-200, Q-HP chromatography. The γ isozyme was stored frozen at −80° C. in NaH2PO4, pH 8, 0.2M NaCl, 1% ethylene glycol, 2 mM β-mercaptoethanol.
Assays were performed in 25 μL with the above final concentrations of components in white polyproplyene plates (Costar 3355). Phospatidyl inositol phosphoacceptor, PtdIns(4,5)P2 P4508, was from Echelon Biosciences. The ATPase activity of the alpha and gamma isozymes was not greatly stimulated by PtdIns(4,5)P2 under these conditions and was therefore omitted from the assay of these isozymes. Test compounds were dissolved in dimethyl sulfoxide and diluted with three-fold serial dilutions. The compound in DMSO (1 μL) was added per test well, and the inhibition relative to reactions containing no compound, with and without enzyme was determined. After assay incubation at room temperature, the reaction was stopped and residual ATP determined by addition of an equal volume of a commercial ATP bioluminescence kit (Perkin Elmer EasyLite) according to the manufacturer's instructions, and detected using a AnalystGT luminometer.

murine model of asthma = settings: ovalbumin-induced airway inflammation; cited from earlier work
p110δ = settings: cited from earlier work
protein kinases = settings: cited from earlier work
P110β = settings: cited from earlier work

For `O=C1NC(=O)/C(=C\c2ccc3nccnc3c2)S1` [AS 605240], the “efficacy in a mouse model of rheumatoid arthritis” value [1] is given as “efficacious” and the “onset of disease in a model of systemic lupus erythematosis” value [2] is given as “delay onset of disease”.

Compound `Cc1ccccc1-c1nc2c(C)cccc2cc1CNc1nc(N)nc2[nH]cnc12` [Example 13, N6-((8-Methyl-2-o-tolylquinolin-3-yl)methyl)-9H-purine-2,6-diamine] has a pIC50 (PI3Kδ) of 7.09.

Work on `Cc1ccccc1-c1nc2c(C)cccc2cc1COc1ncnc2[nH]ccc12` [Example 14] yielded a pIC50 (PI3Kδ) of 7.25.

Work on `Cc1cccc2cc(COc3ncnc4[nH]ccc34)c(-c3ccccc3)nc12` [Example 15, 3-((7H-Pyrrolo[2,3-d]pyrimidin-4-yloxy)methyl)-8-methyl-2-phenylquinoline] yielded a pIC50 (PI3Kδ) of 7.17.

For `Cc1cccc2cc(CNc3ncnc4[nH]cnc34)c(-c3ccccc3C(F)(F)F)nc12` [Example 16, N-((8-Methyl-2-(2-(trifluoromethyl)phenyl)quinolin-3-yl)methyl)-9H-purin-6-amine], the pIC50 (PI3Kδ) was 7.04.

In the case of `COc1cccc(F)c1-c1nc2c(C)cccc2cc1CNc1ncnc2[nH]cnc12` [Example 17, N-((2-(2-Fluoro-6-methoxyphenyl)-8-methylquinolin-3-yl)methyl)-9H-purin-6-amine], the pIC50 (PI3Kδ) was 6.19.

`Cc1cccc2nc(-c3ccccc3Cl)c(CNc3ncnc4[nH]cnc34)nc12` [Example 18, N-((3-(2-Chlorophenyl)-8-methylquinoxalin-2-yl)methyl)-9H-purin-6-amine] gave a pIC50 (PI3Kδ) of 6.49.

In the case of `Cc1cccc2nc(CNc3ncnc4[nH]cnc34)c(-c3ccccc3Cl)nc12` [Example 19, N-((3-(2-Chlorophenyl)-5-methylquinoxalin-2-yl)methyl)-9H-purin-6-amine], the pIC50 (PI3Kδ) was 7.18.

`Cc1ccccc1-c1nc2c(C)cccc2cc1COc1ncnc2c1CC(=O)N2` [Example 20, 4-((8-Methyl-2-o-tolylquinolin-3-yl)methoxy)-5H-pyrrolo[2,3-d]pyrimidin-6(7H)-one] gave a pIC50 (PI3Kδ) of 6.46.

Compound `Clc1cccc2cc(CNc3ncnc4[nH]cnc34)c(Oc3ccccc3)nc12` [Example 30, N-((8-Chloro-2-phenoxyquinolin-3-yl)methyl)-9H-purin-6-amine] has a pIC50 (PI3Kδ) of 6.90.

`Fc1cccc(-c2nc3c(Cl)cccc3cc2CNc2ncnc3[nH]cnc23)c1` [Example 31, N-((8-Chloro-2-(3-fluorophenyl)quinolin-3-yl)methyl)-9H-purin-6-amine] gave a pIC50 (PI3Kδ) of 7.13.

With `Clc1cccc2cc(CNc3ncnc4[nH]ccc34)c(-c3ccccc3)nc12` [Example 32, N-((8-chloro-2-phenylquinolin-3-yl)methyl)-7H-pyrrolo[2,3-d]pyrimidin-4-amine] the pIC50 (PI3Kδ) was 6.57.

In the case of `Fc1cc(F)cc(-c2nc3c(Cl)cccc3cc2CNc2ncnc3[nH]cnc23)c1` [Example 33, N-((8-Chloro-2-(3,5-difluorophenyl)quinolin-3-yl)methyl)-9H-purin-6-amine], the pIC50 (PI3Kδ) was 7.12.

For `CS(=O)(=O)c1ccccc1-c1nc2c(Cl)cccc2cc1CNc1ncnc2[nH]cnc12` [Example 35, N-((8-chloro-2-(2-(methylsulfonyl)phenyl)quinolin-3-yl)methyl)-9H-purin-6-amine], the pIC50 (PI3Kδ) was 6.65.

Work on `Fc1ccc2cc(CNc3ncnc4[nH]cnc34)c(-c3ccccc3Cl)nc2c1` [Example 36, N-((2-(2-Chlorophenyl)-7-fluoroquinolin-3-yl)methyl)-9H-purin-6-amine] yielded a pIC50 (PI3Kδ) of 6.65.

With `Fc1ccc2nc(-c3ccccc3Cl)c(CNc3ncnc4[nH]cnc34)cc2c1` [Example 37, N-((2-(2-Chlorophenyl)-6-fluoroquinolin-3-yl)methyl)-9H-purin-6-amine] the pIC50 (PI3Kδ) was 5.77.

`Fc1cc2cc(CNc3ncnc4[nH]cnc34)c(-c3ccccc3Cl)nc2cc1F` [Example 38, N-((2-(2-Chlorophenyl)-6,7-difluoroquinolin-3-yl)methyl)-9H-purin-6-amine] showed a pIC50 (PI3Kδ) of 6.26.

Compound `Fc1ccc(OCc2ccccc2)c(-c2nc3c(Cl)cccc3cc2CNc2ncnc3[nH]cnc23)c1` [Example 39, N-((2-(2-(Benzyloxy)-5-fluorophenyl)-8-chloroquinolin-3-yl)methyl)-9H-purin-6-amine] has a pIC50 (PI3Kδ) of 7.51.

Work on `CC[C@H](Nc1ncnc2[nH]cnc12)c1cc2cccc(Cl)c2nc1-c1cccc(F)c1` [Example 42, N-((S)-1-(8-Chloro-2-(3-fluorophenyl)quinolin-3-yl)propyl)-9H-purin-6-amine] yielded a pIC50 (PI3Kδ) of 7.89.

Compound `C[C@H](Nc1ncnc2[nH]cnc12)c1nc2cccc(Cl)c2cc1-c1cccc(F)c1` [Example 43, N-((S)-1-(5-Chloro-3-(3-fluorophenyl)quinolin-2-yl)ethyl)-9H-purin-6-amine] has a pIC50 (PI3Kδ) of 8.30.

With `C[C@H](Nc1ncnc2[nH]cnc12)c1cc2cccc(Cl)c2nc1-c1cscn1` [Example 44, N-((S)-1-(8-Chloro-2-(thiazol-4-yl)quinolin-3-yl)ethyl)-9H-purin-6-amine] the pIC50 (PI3Kδ) was 7.80.

Work on `C[C@H](Nc1ncnc2[nH]cnc12)c1cc2ccc(F)cc2nc1-c1cccs1` [Example 46, N-((S)-1-(7-Fluoro-2-(thiophen-2-yl)quinolin-3-yl)ethyl)-9H-purin-6-amine] yielded a pIC50 (PI3Kδ) of 8.10.

For `Cc1ccccc1-n1c(Cn2cnc3c(N)ncnc32)nc2cccc(C)c2c1=O` [IC87114], the “inflammation and disease in a murine model of asthma” value (murine model of asthma) is given as “significantly ameliorate inflammation and disease”, the “inhibits p110δ” value (p110δ) is given as “high nanomolar range (triple digit)” and the “activity against any protein kinases tested” value (protein kinases) is given as “no activity”.

Compound `C[C@@H](Nc1ncnc2[nH]cnc12)c1cc2cccc(Cl)c2nc1-c1cccc(F)c1` [N-((R)-1-(8-Chloro-2-(3-fluorophenyl)quinolin-3-yl)ethyl)-9H-purin-6-amine] has a pIC50 (PI3Kδ) of 6.37.

For `C[C@H](Nc1ncnc2[nH]cnc12)c1cc2cccc(Cl)c2nc1-c1cccc(F)c1` [N-((S)-1-(8-Chloro-2-(3-fluorophenyl)quinolin-3-yl)ethyl)-9H-purin-6-amine], the pIC50 (PI3Kδ) was 8.22.

For `Cc1cc(C(C)Nc2ccccc2)c2nc(N3CCOCC3)cc(=O)n2c1` (centres unmarked) [TGX-221], the selective over alpha (P110β; beta versus alpha) is listed as “more than 500 fold”, the selective over delta (P110β; beta versus delta) is listed as 14 fold and the selective over gamma (P110β; beta versus gamma) is listed as “more than 500 fold”. For the same compound, the pIC50 (P110β; read-out: potency on beta) was 8.15.

Source: US8586739B2, “Heterocyclic compounds and their uses” (Amgen Inc., priority 2007, dated 2013)
